From patent publication US20140343017A1, “PYRROLE COMPOUND” (Kabushiki Kaisha Yakult Honsha, priority 2012, published 2014)

Assays:
Assay in all cases: Inhibitory effect on growth of human cancer cells (in vitro), WST-8
Format in all cases: cell-based
[1] = test system: human non-small cell lung cancer A549 cells; details: Homo sapiens, A549, 96 h, 96 hours culture
Protocol: (§1) Each pyrrole compound of the present invention was studied for its effects on the growth of human non-small cell lung cancer A549 cells and human colorectal cancer HT-29 cells and HCT116 cells. The cells of each line were suspended in an RPMI1640 medium supplemented with 10% fetal bovine serum and inoculated at a cell density of 1000 cells/50 μL/well to a 96-well plate. After overnight culture, each compound diluted with a medium was added thereto at a concentration of 50 μL/well, and the cells were further cultured for 96 hours. After the completion of culture, WST-8 (Seikagaku Corp.) was added thereto at a concentration of 10 μL/well, and the cells were cultured at 37° C. for approximately 1 hour under 5% CO2 conditions, followed by measurement of absorbance at 450 nm.

[2] = test system: human colorectal cancer HCT116 cells; details: Homo sapiens, HCT-116, 96 h, 96 hours culture
Protocol: as §1

[3] = test system: human colorectal cancer HT-29 cells; details: Homo sapiens, HT-29, 96 h, 96 hours culture, read-out: IC50 (nM) HT29
Protocol: as §1

SMILES | IC50 [1] [nM] | IC50 [2] [nM] | IC50 [3] [nM]
COc1ccc(Br)cc1C(=O)c1c(C)[nH]c(-c2nnc(COC(C)=O)o2)c1C [Compound 202, (5-(4-(5-bromo-2-methoxybenzoyl)-3,5-dimethyl-1H-pyrrol-2-yl)-1,3,4-oxadiazol-2-yl)methyl acetate] | 127 | 62.4 | 50.5
C=Cc1nnc(-c2[nH]c(C)c(C(=O)c3cccc(Br)c3)c2C)o1 [Compound 206, (3-bromophenyl)(2,4-dimethyl-5-(5-vinyl-1,3,4-oxadiazol-2-yl)-1H-pyrrol-3-yl)methanone] | 31.5 | 9.5 | 8.8
Cc1[nH]c(-c2nnc(CO)o2)c(C)c1C(=O)c1cccc(Br)c1 [Compound 211, (3-bromophenyl) (5-(5-(hydroxymethyl)-1,3,4-oxadiazol-2-yl)-2,4-dimethyl-1H-pyrrol-3-yl)methanone] | 183 | 49.1 | 44.1
Cc1[nH]c(-c2nnc(CN)o2)c(C)c1C(=O)c1cccc(Br)c1 [Compound 214, (5-(5-(aminomethyl)-1,3,4-oxadiazol-2-yl)-2,4-dimethyl-1H-pyrrol-3-yl)(3-bromophenyl)methanone] | 999 | 286 | 230
CCc1nnc(-c2c(C)c(C(=O)c3cccc(Br)c3)c(C)n2C)o1 [Compound 223, (3-bromophenyl) (5-(5-ethyl-1,3,4-oxadiazol-2-yl)-1,2,4-trimethyl-1H-pyrrol-3-yl)methanone] | 231 | 46.9 | 28.1
CCc1nnc(-c2c(C)c(C(=O)c3cccc(Br)c3)c(C)n2C(C)=O)o1 [Compound 224, 1-(3-(3-bromobenzoyl)-5-(5-ethyl-1,3,4-oxadiazol-2-yl)-2,4-dimethyl-1H-pyrrol-1-yl)ethanone] | 1.8 | 1.7 | 1.3
CCc1nnc(-c2c(C)c(C(=O)c3cccc(Br)c3)c(C)n2S(C)(=O)=O)o1 [Compound 225, (3-bromophenyl)(5-(5-ethyl-1,3,4-oxadiazol-2-yl)-2,4-dimethyl-1-(methylsulfonyl)-1H-pyrrol-3-yl)methanone] | 9.7 | 9.2 | 6.6
CCc1nnc(-c2c(C)c(C(=O)c3cccc(Br)c3)c(C)n2CCO)o1 [Compound 236, (3-bromophenyl) (1-(2-hydroxyethyl)-2,4-dimethyl-5-(5-ethyl-1,3,4-oxadiazol-2-yl)-1H-pyrrol-3-yl)methanone] | 469 | 231 | 168
Cc1[nH]c(-c2nnc(C3CC3)o2)c(C)c1C(=O)c1cc(Br)ccc1O [Compound 241, (5-bromo-2-hydroxyphenyl)(5-(5-cyclopropyl-1,3,4-oxadiazol-2-yl)-2,4-dimethyl-1H-pyrrol-3-yl)methanone] | 2.1 | 1.4 | 2.6
CCc1nnc(-c2[nH]c(C)c(C(=O)c3ccc(OCCN)c(Br)c3)c2C)o1 [Compound 251, (4-(2-aminoethoxy)-3-bromophenyl)(5-(5-ethyl-1,3,4-oxadiazol-2-yl)-2,4-dimethyl-1H-pyrrol-3-yl)methanone] | 191 | 55.3 | 102
Cc1[nH]c(-c2nnc(C3CC3)o2)c(C)c1C(=O)c1cccc(OCCN)c1 [Compound 253, (3-(2-aminoethoxy)phenyl)(5-(5-cyclopropyl-1,3,4-oxadiazol-2-yl)-2,4-dimethyl-1H-pyrrol-3-yl)methanone] | 351 | 45.2 | 146
Cc1[nH]c(-c2nnc(C3CC3)o2)c(C)c1C(=O)c1ccc(OCCN)c(Br)c1 [Compound 256, (4-(2-aminoethoxy)-3-bromophenyl)(5-(5-cyclopropyl-1,3,4-oxadiazol-2-yl)-2,4-dimethyl-1H-pyrrol-3-yl)methanone] | 95.9 | 43.2 | 36.2
COc1ccc(Br)cc1C(=O)c1c(CO)[nH]c(-c2nnc(C3CC3)o2)c1C [Compound 259, (5-bromo-2-methoxyphenyl)(5-(5-cyclopropyl-1,3,4-oxadiazol-2-yl)-2-(hydroxymethyl)-4-methyl-1H-pyrrol-3-yl)methanone] | 69.5 | 39.2 | 37.2

More lines, in order of falling IC50 [1], values ahead:

IC50 [1] [nM] | IC50 [2] [nM] | IC50 [3] [nM] | SMILES
905 | 902 | 845 | COc1ccc(C(=O)c2c(C3SCCCS3)[nH]c(-c3nnc(C4CC4)o3)c2C)cc1Br [Compound 262, (3-bromo-4-methoxyphenyl)(5-(5-cyclopropyl-1,3,4-oxadiazol-2-yl)-2-(1,3-dithian-2-yl)-4-methyl-1H-pyrrol-3-yl)methanone]
865 | 865 | 384 | Cc1[nH]c(-c2nnc(C3CC3)o2)c(C)c1C(=O)c1ccc(OCCN(C)C)c(Br)c1 [Compound 257, (3-bromo-4-(2-(dimethylamino)ethoxy)phenyl) (5-(5-cyclopropyl-1,3,4-oxadiazol-2-yl)-2,4-dimethyl-1H-pyrrol-3-yl)methanone]
738 | 239 | 172 | CCc1nnc(-c2c(C)c(C(=O)c3cccc(Br)c3)c(C)n2CCOC(C)=O)o1 [Compound 235, 2-(3-(3-bromobenzoyl)-2,4-dimethyl-5-(5-ethyl-1,3,4-oxadiazol-2-yl)-1H-pyrrol-1-yl)ethyl acetate]
555 | 447 | 290 | CCc1nnc(-c2c(C)c(C(=O)c3cccc(Br)c3)c(C)n2S(=O)(=O)C2CC2)o1 [Compound 227, (3-bromophenyl) (1-(cyclopropylsulfonyl)-5-(5-ethyl-1,3,4-oxadiazol-2-yl)-2,4-dimethyl-1H-pyrrol-3-yl)methanone]
389 | 647 | 209 | Cc1c(-c2nnc(C3CC3)o2)[nH]c(C2SCCCS2)c1C(=O)c1cccc(Br)c1 [Compound 200, (3-bromophenyl) (5-(5-cyclopropyl-1,3,4-oxadiazol-2-yl)-2-(1,3-dithian-2-yl)-4-methyl-1H-pyrrol-3-yl)methanone]
210 | 152 | 171 | Cc1[nH]c(-c2nnc(CO)o2)c(C)c1C(=O)c1cc(Br)ccc1O [Compound 203, (5-bromo-2-hydroxyphenyl)(5-(5-(hydroxymethyl)-1,3,4-oxadiazol-2-yl)-2,4-dimethyl-1H-pyrrol-3-yl)methanone]
205 | 42.9 | 39.3 | CC(=O)OCc1nnc(-c2[nH]c(C)c(C(=O)c3cccc(Br)c3)c2C)o1 [Compound 210, (5-(4-(3-bromobenzoyl)-3,5-dimethyl-1H-pyrrol-2-yl)-1,3,4-oxadiazol-2-yl)methyl acetate]
64.9 | 37 | 20.3 | Cc1[nH]c(-c2nnc(CCO)o2)c(C)c1C(=O)c1cccc(Br)c1 [Compound 205, (3-bromophenyl)(5-(5-(2-hydroxyethyl)-1,3,4-oxadiazol-2-yl)-2,4-dimethyl-1H-pyrrol-3-yl)methanone]
55.1 | 44.5 | 33.2 | Cc1[nH]c(-c2nnc(C3CC3)o2)c(C)c1C(=O)c1ccc(O)c(Br)c1 [Compound 254, (3-bromo-4-hydroxyphenyl)(5-(5-cyclopropyl-1,3,4-oxadiazol-2-yl)-2,4-dimethyl-1H-pyrrol-3-yl)methanone]
50.5 | 45.4 | 30.9 | COc1ccc(Br)cc1C(=O)c1c(C=O)[nH]c(-c2nnc(C3CC3)o2)c1C [Compound 258, 3-(5-bromo-2-methoxybenzoyl)-5-(5-cyclopropyl-1,3,4-oxadiazol-2-yl)-4-methyl-1H-pyrrole-2-carboaldehyde]
31.1 | 8.9 | 5.9 | CC(=O)OCCc1nnc(-c2[nH]c(C)c(C(=O)c3cccc(Br)c3)c2C)o1 [Compound 204, 2-(5-(4-(3-bromobenzoyl)-3,5-dimethyl-1H-pyrrol-2-yl)-1,3,4-oxadiazol-2-yl)ethyl acetate]
19.5 | 10.6 | 9 | Cc1[nH]c(-c2nnc(C3CC3)o2)c(C)c1C(=O)c1cccc(CO)c1 [Compound 199, (5-(5-cyclopropyl-1,3,4-oxadiazol-2-yl)-2,4-dimethyl-1H-pyrrol-3-yl)(3-(hydroxymethyl)phenyl)methanone]
12.9 | 88.9 | 9.4 | Cc1c(-c2nnc(C3CC3)o2)[nH]c(C=O)c1C(=O)c1cccc(Br)c1 [Compound 261, 3-(3-bromobenzoyl)-5-(5-cyclopropyl-1,3,4-oxadiazol-2-yl)-4-methyl-1H-pyrrole-2-carboaldehyde]
1.9 | 0.6 | 0.3 | CCc1nnc(-c2c(C)c(C(=O)c3cccc(Br)c3)c(C)n2C(=O)c2ccccc2)o1 [Compound 237, (1-benzoyl-5-(5-ethyl-1,3,4-oxadiazol-2-yl)-2,4-dimethyl-1H-pyrrol-3-yl) (3-bromophenyl)methanone]
0.7 | 0.4 | 0.3 | CCc1nnc(-c2c(C)c(C(=O)c3cccc(Br)c3)c(C)n2C(=O)COC(C)=O)o1 [Compound 226, 2-(3-(3-bromobenzoyl)-5-(5-ethyl-1,3,4-oxadiazol-2-yl)-2,4-dimethyl-1H-pyrrol-1-yl)-2-oxoethyl acetate]
0.4 | 0.3 | 0.3 | C=Cc1[nH]c(-c2nnc(C3CC3)o2)c(C)c1C(=O)c1cccc(Br)c1 [Compound 260, (3-bromophenyl) (5-(5-cyclopropyl-1,3,4-oxadiazol-2-yl)-4-methyl-2-vinyl-1H-pyrrol-3-yl)methanone]
